One assay deals with human IL-1β. Kind of assay: IL-1β assay: suppression of IL-1β production by LPS-stimulated PBMC (sandwich ELISA). The format is cell-based. Particulars: LPS 1 μg/ml, 72 hours at 37° C. As to the method: (§1) Peripheral blood mononuclear cells (herein referred as PBMC), in response to stimulation by lipopolysaccharide (LPS), a gram-negative bacterial endotoxin, produce various […], in particular human TNF-α and IL-1β. The inhibition of the activation of PBMC can be measured by the level of suppression of the production of TNF-α or IL-1β by PBMC in response to stimulation by LPS.
(§2) Such inhibition measurement was performed as follows: PBMC were isolated from heparinized peripheral blood (Buffy coat) by density gradient centrifugation. LPS is then added to the PMBC suspension in complete medium (10^6 cells/ml) at a final concentration of 1 μg/ml. The pteridine derivative to be tested was added at different dilution levels, and the cells were incubated at 37° C. for 72 hours. The supernatants were collected, and TNF-α or IL-1β concentrations were measured with respectively an anti-TNF antibody or an anti-IL-1β antibody in a sandwich ELISA (Duo Set ELISA human TNFα, commercially available from R&D Systems, United Kingdom). The colorimetric reading of the ELISA was measured by a Multiskan RC plate reader (commercially available from ThermoLabsystems, Finland) at 450 nm (reference wavelength: 690 nm). Data analysis was performed with Ascent software 2.6. (also from ThermoLabsystems, Finland): a standard curve (recombinant human TNFα) was drawn and the amount (pg/ml) of each sample on the standard curve was determined.
(§3) The % inhibition of human TNF-α production or human IL-1β was calculated using the formula: % inhibition=[…] wherein: min.: pg/ml in culture medium without test compound, and
(§4) max.: pg/ml in culture medium+LPS without test compound.

The next assay concerns C3H mice. Kind of assay: Protection against lethal toxic shock (LPS injection). The format is in vivo.
A further assay relates to C57BL/6 male mice. In words: Protection against a lethal dose of TNF-α (TNF-α induced shock). The format is in vivo. Particulars: for Animals surviving 48 hours after TNF-α administration: TNF-α 10 μg i.v., 20 mg/kg/day i.p. three injections, total animals 9, 6, 6. As for the experimental part:
A model of TNF-α induced shock in C57BL/6 male mice was performed as follows. Animals from the control group received an Intravenous administration of a lethal dose of TNF-α (10 μg) in the tail. Animals from the test group received three intraperitoneous injections of a pteridine derivative (20 mg/kg/day) respectively 48 hours, 24 hours and immediately before an intravenous injection of TNF-α (10 μg).

Assay [1] concerns melanoma (B16BL/6) in C57BL6 (B6) mice. Kind of assay: Reduction of tumor growth while inhibiting TNF-α toxicity, melanoma tumor model. The assay is classed as in vivo. As to the method: A tumor model of melanoma (B16BL/6) in C57BL6 (B6) mice was performed as follows. On day 1, a group of 18 B6 mice were injected with 1.5×10^6 B16BL/6 melanosarcoma cells. The group was further divided into the following subgroups 3 days after the tumor cells injection: • a first control sub-group of 6 mice received vehicle (physiological solution) 3 times a week starting on day 3; • a second control subgroup of 5 mice received TNF-α (15 μg) on day 5 and, for surviving animals, TNF-α was again administered 3 times a week for 2 weeks; • a test sub-group of 7 mice intraperitoneously received the pteridine derivative of example 24 at a dose of 20 mg/kg on each of days 3, 4 and 5; the latter third injection on day 5 occurred 2 hours before a first TNF-α intravenous injection (15 μg). Then the test compound (20 mg/kg/day) and TNF-α (15 μg/day) were administered each subcutaneously 3 times a week for 2 weeks.

The test system of another assay is human TNF-α. Kind of assay: TNF-α assay: suppression of TNF-α production by LPS-stimulated PBMC (sandwich ELISA). Conditions: LPS 1 μg/ml, 72 hours at 37° C. The format is cell-based. As for the experimental part: as §1, §2, §3, §4
On the technique in general: An ELISA detects its analyte on a solid surface through an enzyme-linked reagent.

Where [2] appears, read: group of 16 C3H mice, 100 μg LPS i.p., 20 mg/kg/day i.p. for 2 days.

Results on 29 compounds are retold here after patent publication US20070004721A1, “Pteridine derivatives for the treatment of septic shock and tnf-a-related diseases” (priority 2003, published 2007).

As to `COc1ccc(-c2cnc3nc(N)nc(N4CCOCC4)c3n2)cc1OC` [Example 24, 2-amino-4-morpholino-6-(3,4-dimethoxyphenyl)pteridine], the IC50 (commonly the concentration at which inhibition is half-maximal) in the assay with human IL-1β (Homo sapiens) stood at 5.5 µM. For the same compound, in the assay on C3H mice (setting [2]), the “animals permanently survived the challenge of a LPS lethal dose” value came to 14 and the “animals showing a significantly prolonged survival” value came out at 2. This compound also displayed a prolonged survival with C3H mice (the 2 animals that did not survive permanently, controls die within 1-3 days) of 5 days. Also, in the assay on C57BL/6 male mice, the “Animals surviving 48 hours after TNF-α administration” value (“Animals surviving 48 hours” for short) came out at 7. The compound further showed a body temperature with C57BL/6 male mice (followed for 48 hours after TNF-α 10 μg i.v., 20 mg/kg/day i.p. 48 h, 24 h and immediately before, control 28.2° C.) of 30.1 °C. Besides, the “average tumor size (largest diameter multiplied by smallest diameter)” value in assay [1] (after two weeks treatment together with TNF-α, first control group 439 mm^2) is given as 144 mm^2. Moreover, the “animals of the test sub-group survived” value in assay [1] (out of 7 tumor bearing mice, 20 mg/kg plus TNF-α 15 μg, second control group all died) was 5.

As to `CC(C)Oc1nc(N)nc(N)c1N` [Example 59, 2,5,6-triamino-4-isopropoxy-pyrimidine], in the assay with human TNF-α, the IC50 was 8 µM.

Take `CC(C)Oc1nc(N)nc2ncc(Cl)nc12` [Example 65, 2-amino-6-chloro-4-isopropoxypteridine]: in the assay on human TNF-α, it took 9.1 µM to reach half-maximal inhibition (IC50).

In the assay with human TNF-α, `CCOc1nc(N)nc2ncc(-c3ccccc3OC)nc12` [Example 67, 2-amino-6-(o-methoxyphenyl)-4-ethoxy-pteridine] displayed an IC50 of 10 µM.

Regarding `CCOc1nc(N)nc2ncc(-c3cccc(OC)c3)nc12` [Example 68, 2-amino-6-(m-methoxyphenyl)-4-ethoxy-pteridine], the midpoint of inhibition in the assay on human TNF-α, the IC50, lay at 10 µM.

In the assay with human TNF-α, `CCOc1nc(N)nc2ncc(-c3cccs3)nc12` [Example 72, 2-amino-6-(2-thienyl)-4-ethoxy-pteridine] registered an IC50 of 8.5 µM.

For `CCOc1nc(N)nc2ncc(-c3ccc(F)cc3)nc12` [Example 77, 2-amino-6-(p-fluorophenyl)-4-ethoxy-pteridine], in the assay on human TNF-α, the IC50 was 8.1 µM.

In the assay on human TNF-α, `CCOc1nc(N)nc2ncc(-c3ccc(F)c(C)c3)nc12` [Example 80, 2-amino-6-(3-methyl-4-fluorophenyl)-4-ethoxy-pteridine] returned an IC50 of 6.8 µM.

For the compound `CCOc1nc(N)nc2ncc(-c3ccc(OC)c(OC)c3)nc12` [Example 83, 2-amino-6-(3,4-dimethoxyphenyl)-4-ethoxy-pteridine], the midpoint of inhibition in the assay with human TNF-α, the IC50, lay at 6.6 µM.

For the compound `Cc1ccc(-c2cnc3nc(N)nc(OC(C)C)c3n2)cc1C` [Example 85, 2-amino-6-(3,4-dimethylphenyl)-4-isopropoxypteridine], in the assay with human IL-1β (Homo sapiens), the half-inhibitory concentration (IC50) is over 40 µM.

In the case of `CC(C)Oc1nc(N)nc2ncc(-c3ccc(F)c(Cl)c3)nc12` [Example 87, 2-amino-6-(3-chloro-4-fluorophenyl)-4-isopropoxypteridine], the IC50 with human TNF-α was 7.5 µM.

Compound `CCOc1ccc(-c2cnc3nc(N)nc(OC(C)C)c3n2)cc1` [Example 92, 2-amino-6-(p-ethoxyphenyl)-4-isopropoxypteridine] came in with a concentration for half-maximal inhibition (IC50) in the assay with human TNF-α of 10 µM.

In the assay on human TNF-α, `CC(C)Oc1nc(N)nc2ncc(-c3ccsc3)nc12` [Example 94, 2-amino-6-(3-thienyl)-4-isopropoxypteridine] gave an IC50 of 7.6 µM.

`CC(=O)c1ccc(-c2cnc3nc(N)nc(OC(C)C)c3n2)cc1` [Example 97, 2-amino-6-(p-acetylphenyl)-4-isopropoxypteridine] showed an IC50 with human TNF-α of 9.1 µM.

Regarding `COc1ccc(-c2cnc3nc(N)nc(OC(C)C)c3n2)cc1OC` [Example 98, 2-amino-6-(3,4-dimethoxyphenyl)-4-isopropoxypteridine], the figures for the IC50 with human TNF-α and in the assay with human IL-1β (Homo sapiens) were 3.5 µM and over 40 µM, respectively. Moreover, the “Animals surviving 48 hours” value with C57BL/6 male mice came to 3.

For `COc1ccc(-c2cnc3nc(N)nc(N4CC=CCC4)c3n2)cc1OC` [Example 119, 2-amino-4-(1,2,3,6-tetrahydropyridinyl)-6-(3,4-dimethoxyphenyl)pteridine], the IC50 in the assay on human IL-1β was 15 µM. The “Animals surviving 48 hours” value with C57BL/6 male mice is recorded as 3.

In turn, `COc1ccc(-c2cnc3nc(NCc4cccs4)nc(N)c3n2)cc1OC` [Example 143, 2-(2-thienylmethylamino)-4-amino-6-(3,4-dimethoxyphenyl)pteridine] yielded an IC50 with human TNF-α of 10 µM.

Regarding `COc1ccc(-c2cnc3nc(NCc4ccccc4)nc(N)c3n2)cc1OC` [Example 145, 2-benzylamino-4-amino-6-(3,4-dimethoxyphenyl)pteridine], in the assay on human TNF-α, the half-inhibitory concentration (IC50) was found to be 9.3 µM.

Consider `Nc1nc(N2CCOCC2)c2nc(-c3ccc(NC(=O)COc4ccccc4)cc3)cnc2n1` [Example 160, 2-amino-4-morpholino-6-(4-phenoxyacetylaminophenyl)pteridine], for which the IC50 in the assay on human TNF-α came out at 4.9 µM.

`Nc1nc(N2CCOCC2)c2nc(-c3ccc(NC(=O)c4ccncc4)cc3)cnc2n1` [Example 166, 2-amino-4-morpholino-6-(4-isonicotinoylaminophenyl)pteridine]: the midpoint of inhibition in the assay on human TNF-α, the IC50, lay at 4.4 µM.

On to `Nc1nc(N2CCOCC2)c2nc(-c3cccc(NC(=O)c4ccccc4)c3)cnc2n1` [Example 171, 2-amino-4-morpholino-6-(3-benzoylaminophenyl)pteridine], for which the concentration for half-maximal inhibition (IC50) in the assay with human TNF-α was 4.3 µM.

`Nc1nc(N2CCOCC2)c2nc(-c3cccc(NS(=O)(=O)c4ccccc4)c3)cnc2n1` [Example 172, 2-amino-4-morpholino-6-(3-benzensulfonylaminophenyl)pteridine] had an IC50 with human TNF-α of 0.5 µM.

In the assay with human TNF-α, `Nc1nc(N2CCOCC2)c2nc(-c3cccc(NC(=O)c4ccncc4)c3)cnc2n1` [Example 174, 2-amino-4-morpholino-6-(3-isonicotinoylaminophenyl)pteridine] showed a half-maximal inhibitory concentration (IC50) of 7.3 µM.

For `Nc1nc(N2CCOCC2)c2nc(-c3cccc(NC(=O)C4CCCCC4)c3)cnc2n1` [Example 175, 2-amino-4-morpholino-6-(3-cyclohexanoylaminophenyl)pteridine], in the assay with human TNF-α, the 50% inhibitory concentration (IC50) stood at 5 µM.

In the assay on human TNF-α, `Nc1nc(N2CCOCC2)c2nc(-c3cccc(NC(=O)COCc4ccccc4)c3)cnc2n1` [Example 179, 2-amino-4-morpholino-6-(3-benzyloxyacetylaminophenyl)pteridine] gave an IC50 of 7.7 µM.

For `CCS(=O)(=O)Nc1cccc(-c2cnc3nc(N)nc(N4CCOCC4)c3n2)c1` [Example 180, 2-amino-4-morpholino-6-(3-ethylsulfonylaminophenyl)pteridine], it took 10 µM to reach half-maximal inhibition with human TNF-α (IC50).

In turn, `CCOc1ccc(-c2cnc3nc(N)nc(N4CCOCC4)c3n2)cc1` [Example 186, 2-amino-4-morpholino-6-(4-ethoxyphenyl)pteridine] gave a concentration for half-maximal inhibition (IC50) with human TNF-α of 10 µM.

On to `CCCOc1ccc(-c2cnc3nc(N)nc(N4CCOCC4)c3n2)cc1` [Example 190, 2-amino-4-morpholino-6-(4-propoxy-phenyl)pteridine], for which inhibition in the assay with human TNF-α was half-maximal at 10 µM (IC50).

In turn, `COCCOc1ccc(-c2cnc3nc(N)nc(N4CCOCC4)c3n2)cc1` [Example 193, 2-amino-4-morpholino-6-(4-(2-methoxyethoxy)-phenyl)pteridine] showed a half-maximal inhibitory concentration (IC50) with human TNF-α of 7.2 µM.
